Reference: patent US5446045A, “Antiviral guanine analogs” (priority 1993, dated 1995)
≈ marks a conversion by molar mass, not a printed value.

Columns and labels:
[1] = tested on: Herpes simplex virus type 1 (HSV1); assay: Inhibition of HSV1 in Vero cells (CPE assay); assay type: cell-based; settings: Human alphaherpesvirus 1, CPE scored 40 to 48 h post-infection
Procedure: (§1) Vero and MRC-5 cells were obtained from ATCC. Human foreskin fibroblast (HFF) and Vero cells were routinely grown in minimal essential medium (MEM) with Earle salts [MEM(E)]supplemented with 10% fetal bovine serum (FBS). MRC-5 cells were grown in Basal Medium Eagle (BME) with 10% FBS and 0.035% NaHCO3. Cells were passaged according to conventional procedures.^33 Human cytomegalovirus (HCMV) strains AD169 and Towne were obtained from the ATCC. Herpes simplex virus type i and type 2 (HSV1 and HSV2) are commercially available.
(§2) Vero cells were plated at 4×10^4 cells/well in a 96-well microtitre dish in 0.1 mL of MEM(E) with 10% FBS 24 h before infection with virus. The cells were incubated at 37° C. in a 5% CO2 atmosphere. The medium was then removed and 50 μL of media containing 30 to 50 PFU of virus was allowed to adsorb to the cells for 10 minutes at 37° C. The virus containing medium was then removed and the cells were rinsed 3 times with fresh media. A final 100 μL aliquot of fresh medium, containing the various dilutions of test compounds, was then added to each well and the plates were then incubated at 37° C. Plaques were observed 24 hr post-infection and the degree of cytopathic effect scored 40 to 48 h post-infection. Acyclovir was used as a standard in all ttSV assays.
(§3) I. The same compounds used in Example 31 were also assayed for their ability to inhibit herpes simplex viruses type 1 and type 2 in acute infection assays in culture.
(§4) III. The toxic effect of these compounds on actively dividing Vero cells is reported. For all values listed as >x, x is the highest concentration tested for the respective compound.
(§5) Vero cells were plated in a 96-well microtitre dish in 0.1 ml of MEM(E) with 10% FBS 24 hours before infection with virus. The medium will then be removed and 50 ul of media containing 30 to 50 PFU of virus were allowed to adsorb to the cells for 10 minutes at 37° C. The virus-containing medium will then be removed and the cells rinsed 3 times with fresh media. A final 100 ul aliquot of fresh medium, containing the various dilutions of test compounds, were added to each well and the plates incubated at 37° C. Plaques were observed 24 hours post-infection and the degree of cytopathic effect scored 40 to 48 hours-post infection. Acyclovir was used as a standard in all HSV assays.

[2] = tested on: Herpes simplex virus type 2 (HSV2); assay: Inhibition of HSV2 in Vero cells (CPE assay); assay type: cell-based; settings: Human alphaherpesvirus 2, CPE scored 40 to 48 h post-infection
Procedure: as §1, §2, §3, §4, §5

[3] = tested on: Human cytomegalovirus (HCMV) strain Towne; assay: HCMV plaque reduction (cytopathic effect) assay, strain Towne in HFF cells; assay type: cell-based; settings: Human betaherpesvirus 5, HFF, read-out: IC50 (median inhibitory concentration)
Procedure: as §1
A similar set of experiments designed to monitor HCMV plaque reduction were performed with monolayer cultures of HFF and the Towne strain of HCMV using procedures similar to those reported by Turk et al.^34 Diploid HFF cells were plated 24 hr before use at approximately 1×10^5 cells/plate. These monolayer cultures were infected with 100 plaque forming units (PFU) of virus. The compounds to be assayed were dissolved in culture medium. Viral adsorption was allowed to proceed for 1 hr at which time virus containing medium was removed and replaced with medium containing the various dilutions of the test compounds. Plaques were counted using crystal violet as described above.
(§6) Ganciclovir was used as an anti-HCMV standard in all HCMV assays.
(§7) I. A series of guanine analogs containing an alkyl side chain in place of sugar moiety were evaluated for their ability to inhibit HCMV production in acute infection assays in culture and for cytotoxicity in HFF and MRC-5 cells.
(§8) III. Table 1 lists the median inhibitory concentration (IC50) for all compounds tested against HCMV strains AD169 or Towne. In addition this table lists the median toxic concentrations of these compounds (TC50) as determined by visual observation of uninfected cells treated with various concentrations of drug.

[4] = Visual cytotoxicity in stationary uninfected MRC-5 cells; assay type: cell-based; settings: human, AD169/MRC5 system, visual observation of stationary uninfected MRC5 cells, read-out: TC50 (median toxic concentration)
Procedure: (§9) Stationary uninfected HFF and MRC-5 cells were evaluated for visual cytotoxicity on the scoring basis of 0 (no visual cytotoxicity at 20 fold magnification) to 4 (cell sheet nearly destroyed). Cytotoxicity as measured by inhibition of cell growth was performed in Vero cells using a CellTiter 96™ Aqueous Non-Radioactivity Cell Proliferation Assay (Promega). Cytotoxicity assays were performed using a 4 day incubation of test compound with Vero cells plated at 500 cells/well. Each assay was performed in quadruplicate. The resultant data are averaged, graphed and then used to calculate the TC50 (median toxic concentration) for the compound tested.
as §7, §8

[5] = Cytotoxicity (inhibition of cell growth) in actively dividing Vero cells, CellTiter 96 assay; assay type: cell-based; settings: african green monkey, 4 day incubation, read-out: Cytotoxicity (TC50)
Procedure: as §1, §9
III. […] For all values listed as >x, x is the highest concentration tested for the respective compound.

[6] = tested on: Human cytomegalovirus (HCMV) strain AD169; assay: HCMV plaque reduction (cytopathic effect) assay, strain AD169 in MRC-5 cells; assay type: cell-based; settings: Human betaherpesvirus 5, AD169/MRC5, read-out: IC50 (median inhibitory concentration)
Procedure: as §1
Two different plaque reduction assays were employed to determine the antiviral efficacy of the test compounds in culture. The first assay used MRC-5 cells and the AD169 strain of HCMV. The second assay used HFF cells and the Towne strain of HCMV. In experiments using MRC-5 cells the growth medium was removed from monolayer cultures in 24-well tissue culture plates. One mL of virus (AD169), diluted in test medium (Dulbecco's modified Eagle medium (DMEM), 2% FBS, 0.1% NaHCO3 and 50 ug gentamicin/mL) was used. The 24-well plates were centrifuged at 2200 rpm for 30 minutes at room temperature to allow the virus to adsorb. Medium was then aspirated from each well of the plates. The individual dilutions of each compound (prepared in test medium) were placed in each test well (0.8 mL/well, 4 wells/dilution). All plates were incubated at 37° C. in a moist atmosphere of 5% CO2. When virus plaques had formed in control cells (HCMV infected, untreated) the medium was aspirated from all wells, and the cells were stained by adding 0.3 mL of 0.2% crystal violet in 10% buffered formalin to each well. After 15 minutes, the stain was removed, cells were rinsed in tap water until the water was clear, and the plates were inverted and dried at room temperature. Plaques were counted by use of a dissecting microscope.
as §6, §7, §8
Plaque reduction assays were employed to determine the antiviral efficacy of the test compounds in culture. MRC-5 cells and the AD169 strain of FICMV were used. Growth medium was removed from monolayer cultures in 24-well tissue culture plates. One ml of virus, diluted in test medium (Dulbecco's modified Eagle medium (DMEM), 2% FBS, 0.1% NaHCO3 and 50 ug gentamicin/ml). After infection and subsequent removal of the media, individual dilutions of each compound (prepared in test medium) were placed in each test well (0.8 ml/well, 4 wells/dilution) and plates incubated at 37° C. in a moist atmosphere of 5% CO2. When virus plaques have formed in control cells (HCMV infected, untreated) the medium was aspirated from all wells, and the cells stained by adding 0.3 ml of 0.2% crystal violate in 10% buffered formalin to each well. Plaques were counted by use of a dissecting microscope. Ganciclovir was used as an anti-HCMV standard in all HCMV assays.

[7] = Visual cytotoxicity in stationary uninfected HFF cells; assay type: cell-based; settings: human; Towne/HFF system; visual observation of stationary uninfected HFF cells; read-out: TC50 (median toxic concentration)
Procedure: as §1, §9, §7, §8

viruses [8] = settings: literature ref. 3; cited from earlier work
[9] = literature ref. 3-7; cited from earlier work
viruses [10] = settings: literature ref. 3; cited from earlier work; remark: listed apart in the source
DNA viruses = settings: literature refs. 14-17; cited from earlier work

| SMILES | IC50 [1] | IC50 [2] | IC50 [3] | CC50 [4] | CC50 at 96 h [5] | IC50 [6] | CC50 [7] | antiviral activity in the host animal (viruses [8]) | immunomodulatory activity [9] | antiviral activity in vitro (viruses [10]) | activity against several DNA viruses (DNA viruses) |
| --- | --- | --- | --- | --- | --- | --- | --- | --- | --- | --- | --- |
| CCCCCn1c(=O)sc2c(=O)[nH]c(N)nc21 [Compound R1132-36] | > 5.1 µg/mL | > 5.1 µg/mL | 17 µg/mL (≈ 66.8 µM) | 4 µg/mL (≈ 15.7 µM) | > 5 µg/mL | 0.2 µg/mL (≈ 0.786 µM) | 100 µg/mL (≈ 393 µM) | – | – | – | – |
| Nc1nc2c(sc(=O)n2[C@@H]2O[C@H](CO)[C@@H](O)[C@H]2O)c(=O)[nH]1 [7-thia-8-oxoguanosine] | – | – | – | – | – | – | – | broad spectrum of antiviral activity | demonstrated immunomodulatory activity | virtually inactive | – |
| Cc1cn([C@@H]2O[C@H](CO)[C@@H](O)[C@@H]2F)c(=O)[nH]c1=O [FMAU, 1-(2-deoxy-2-fiuoro-β-D-arabinofuranosyl)thymine] | – | – | – | – | – | – | – | – | – | – | potent agents against several DNA viruses |
| C=CCCCn1c(=O)sc2c(=O)[nH]c(N)nc21 [Compound R1132-75, 5-Amino-3-(pent-4-ene-1-yl)thiazolo[4,5-d]-pyrimidine-2,7(3H, 6H)-dione] | 16.2 µg/mL (≈ 64.4 µM) | 8.1 µg/mL (≈ 32.1 µM) | 12 µg/mL (≈ 47.6 µM) | 68 µg/mL (≈ 270 µM) | 45 µg/mL (≈ 178 µM) | 9.4 µg/mL (≈ 37.3 µM) | > 100 µg/mL | – | – | – | – |
| CCCCC(CCCC)n1c(=O)sc2c(=O)[nH]c(N)nc21 [Compound R1132-73, 5-Amino-3-(nonan-5-yl)thiazolo[4,5-d]-pyrimidine-2,7(3H, 6H)-dione] | > 2.2 µg/mL | > 2.2 µg/mL | 4.7 µg/mL (≈ 15.1 µM) | 178 µg/mL (≈ 573 µM) | > 2.5 µg/mL | 9.4 µg/mL (≈ 30.3 µM) | 11.1 µg/mL (≈ 35.8 µM) | – | – | – | – |
| O=c1[nH]c(=O)n([C@@H]2O[C@H](CO)[C@@H](O)[C@@H]2F)cc1I [FIAU, 1-(2-deoxy-2-fiuoro-β-D-arabinofuranosyl)-5-iodouracil] | – | – | – | – | – | – | – | – | – | – | potent agents against several DNA viruses |
| CCCCCCn1c(=O)sc2c(=O)[nH]c(N)nc21 [Compound R1132-30] | > 1.2 µg/mL | > 1.2 µg/mL | – | 1.2 µg/mL (≈ 4.47 µM) | > 1 µg/mL | 0.45 µg/mL (≈ 1.68 µM) | – | – | – | – | – |
| CCC=CCn1c(=O)sc2c(=O)[nH]c(N)nc21 [Compound R1132-74, 5-Amino-3-(pent-2-ene-1-yl)thiazolo[4,5-d]-pyrimidine-2,7(3H,6H)-dione] | 0.53 µg/mL (≈ 2.1 µM) | < 0.27 µg/mL | 0.14 µg/mL (≈ 0.555 µM) | > 100 µg/mL | > 20 µg/mL | < 1 µg/mL | > 100 µg/mL | – | – | – | – |
| CC(C)=CCn1c(=O)sc2c(=O)[nH]c(N)nc21 [Compound R1132-72, 5-Amino-3-(3-methylbut-2-ene-1-yl)thiazo lo[4,5-d]-pyrimidine-2,7(3H,6H)-dione] | 5.6 µg/mL (≈ 22.2 µM) | 5.6 µg/mL (≈ 22.2 µM) | 1.7 µg/mL (≈ 6.74 µM) | > 100 µg/mL | 20 µg/mL (≈ 79.3 µM) | 4 µg/mL (≈ 15.9 µM) | 100 µg/mL (≈ 396 µM) | – | – | – | – |
| Nc1nc2c(ncn2COC(CO)CO)c(=O)[nH]1 [Ganciclovir, 9-(1-hydroxymethyl-2-hydroxyethoxymethyl)guanine, reference compound] | – | – | 2.7 µg/mL (≈ 10.6 µM) | > 900 µg/mL | – | 2.1 µg/mL (≈ 8.23 µM) | > 100 µg/mL | – | – | – | – |
| CCC(CC)n1c(=O)sc2c(=O)[nH]c(N)nc21 [Compound R1132-76, 5-Amino-3-(pentan-3-yl)thiazolo[4,5-d]-pyrimidine-2,7(3H, 6 H)-dione] | > 21.7 µg/mL | 21.7 µg/mL (≈ 85.3 µM) | – | 32 µg/mL (≈ 126 µM) | 56 µg/mL (≈ 220 µM) | > 100 µg/mL | – | – | – | – | – |
| Nc1nc2c(ncn2COCCO)c(=O)[nH]1 [acyclovir, 9-(2-hydroxyethoxymethyl)guanine, reference compound] | 0.2 µg/mL (≈ 0.888 µM) | 0.2 µg/mL (≈ 0.888 µM) | – | – | > 100 µg/mL | – | – | – | – | – | – |
| CCCCCC(CCCCC)n1c(=O)sc2c(=O)[nH]c(N)nc21 [Compound R1132-77, 5-Amino-3-(undecan-6-yl)thiazolo[4,5-d]-pyrimidine-2,7(3H,6H)-dione] | – | – | – | 52 µg/mL (≈ 154 µM) | – | 12 µg/mL (≈ 35.5 µM) | – | – | – | – | – |
